One series has as its system hepatocytes of human. The experiment in a line: In vitro metabolism study in hepatocytes, human. The format is in vitro ADME. Particulars: human hepatocyte suspension, 24 h incubation of 100 μM [14C]-Formula II. Here is the method:
(§1) Hepatocyte stability (Concentrations of the compound according to Formula II and its main metabolites (as % of total radioactivity) after 24 h incubation of 100 μM [^14C]-Compound according to Formula II in hepatocyte suspension of different species)

A further series deals with hepatocytes of rat. Put plainly: In vitro metabolism study in hepatocytes, rat. The format is in vitro ADME. Particulars: rat hepatocyte suspension, 24 h incubation of 100 μM [14C]-Formula II. The protocol:
as §1

Series [1] is described as follows: Single dose pharmacokinetics in animals, rat. The format is in vivo, Sprague-Dawley rats. The protocol:
Pharmacokinetic studies were performed in various animal species dosed with the compound according to Formula II to determine the exposure to the compound according to Formula I as well as its apparent terminal half life (T1/2), when possible. […]
(§2) Temperature was maintained at approximately 22° C., and food and water were provided ad libitum.
The compound according to […] was formulated in 0.5% methylcellulose and dosed orally to 3 or 6 animals as a single esophageal gavage at dose ranging from 15 to 180 mg/kg under a dosing volume of 5 or 10 mL/kg.
(§3) The compound according to Formula II was formulated in 0.5% methylcellulose and dosed orally to 3 animals (or 3 mouse/time points) as a single esophageal gavage at dose ranging from 15 to 45 mg/kg under a dosing volume of 5 or 10 mL/kg.
(§4) Blood samples were collected over a 24-h period via the jugular vein (dog, minipig), ear blood vessel (rabbit), cardiac puncture (mouse) or retro-orbital sinus (rat) with lithium heparin as anti-coagulant. Whole blood samples were centrifuged and the resulting plasma samples were stored at −20° C. pending analysis.
(§5) Plasma concentrations of the compound according to Formula I and of the compound according to Formula II were determined by an LC-MS/MS method with a limit of quantification ≦10.0 ng/mL for both Formula I and Formula II for all species.
(§6) Pharmacokinetic parameters were calculated using a statistical analysis package (WinNonLin (Pharsight, Sunnyvale, Calif.: CA 94086, USA).

Series [2] is described as follows: Single dose pharmacokinetics in human. Particulars: for Ratio I/II of exposure (AUC Formula I : AUC Formula II) / AUC: human; for half-life: oral, human plasma, single dose (10-200 mg) of Formula II as capsules, read-out: mean apparent terminal elimination half-life; for AUC: plasma, po, capsules, read-out: exposure (expressed as AUC). The format is in vivo. Here is the method: Serial blood samples were collected over 72 h to determine plasma concentrations of the compounds according to Formula II and Formula I using a validated liquid chromatography-mass spectrometry/mass spectrometry (LC-MS/MS) method with a limit of quantification of 1.00 ng/mL. PK parameters were assessed using a statistical analysis package (WinNonLin (Pharsight, Sunnyvale, Calif.: CA 94086, USA).
Mean plasma concentration-time profiles of the compound according to Formula II and the compound according to Formula I were measured.
In order to show the comparative exposures of the two compounds, the AUC of the compounds according to Formula I and the compound according to Formula II were calculated. The AUC value represents the total exposure of the compound in the species after dosing. These values were then expressed as a ratio of AUC of the compound according to Formula I: AUC of the compound according to Formula II in FIG. 4. From this ratio it can clearly be seen that there was a significant difference in exposure to a compound according to Formula I after administration of a compound according to Formula II in human compared to the exposure seen in animals for therapeutically equivalent doses. Without wanting to be bound by theory, it was believed that this difference was related to the difference in the apparent terminal half-life in the different species.

Series [3] is described as follows: Single dose pharmacokinetics in animals, dog. It counts as in vivo, Beagle dogs. The protocol:
(§7) Pharmacokinetic studies were performed in various animal species dosed with the compound according to Formula II to determine the exposure to the compound according to Formula I as well as its apparent terminal half life (T1/2), when possible.
(§8) Sprague-Dawley rats (male, 200-250 g), CD1 mice (male, 25-30 g), Beagle dogs (male, 9-10 kg), Göttingen minipigs (male, 10-15 kg) and New Zealand White rabbits (male, 3-5 kg) were acclimatized for at least 7 days before treatment and were kept on a 12 hr light/dark cycle (07 h00-19 h00).
Temperature was maintained at approximately 22° C., and food and water were provided ad libitum. […]
as §3, §4, §5, §6

The nature of series [4]: Single dose pharmacokinetics in animals, mouse. The format is in vivo, CD1 mice. As to conditions: for AUC: read-out: exposure (expressed as AUC). The protocol: as §7, §8, §2, §3, §4, §5, §6
Setting [5] is: male, Sprague-Dawley, plasma, after Formula II 45 mg/kg oral, read-out: exposure (expressed as AUC).
Setting [6] is: after Formula II 10 mg single dose.
Where [7] appears, read: after Formula II 25 mg single dose.
Where [8] appears, read: after Formula II 50 mg single dose.
[9] abbreviates: after Formula II 100 mg single dose.
Setting [10] is: after Formula II 200 mg single dose.
[11] abbreviates: male, Beagle, plasma, after Formula II 15 mg/kg oral, read-out: exposure (expressed as AUC).
Setting [12] is: male, CD1, plasma, after Formula II 30 mg/kg oral.

Each structure is given as a SMILES string.

As usually defined, the half-life is how long it takes for the measured level to halve. The AUC is concentration integrated over time. For `Nc1nc2cccc(-c3ccc(CN4CCS(=O)(=O)CC4)cc3)n2n1` [Formula I, 5-[4-(1,1-Dioxothiomorpholin-4-ylmethyl)-phenyl]-[1,2,4]triazolo[1,5-a]pyridin-2-ylamine], the “In vitro metabolic profile of Formula II (as % of total radioactivity)” value in the series with hepatocytes of human worked out at 11%; in the series with hepatocytes of human (listed as drawing 11), 11.2%; with hepatocytes of rat, 12%. Also, the half-life is 7 h in series [1] (Sprague-Dawley, plasma, 20 mg/kg, administration of Formula I, oral, read-out: Apparent terminal half life (converted)); 21 to 27 h in series [2]; 9 h in series [3] (Beagle, plasma, 10 mg/kg, male, administration of Formula I, oral, read-out: Apparent terminal half life (converted)); 2.1 h in series [4] (male, CD1, plasma, oral, upon administration of Formula II, read-out: apparent terminal elimination half-life (converted)). Also, the AUC in series [1] (Sprague-Dawley, plasma, female, Formula I 20 mg/kg single oral dose, read-out: AUC) was found to be 25200 ng·h/mL; in series [1] (Sprague-Dawley, plasma, female, Formula I 60 mg/kg single oral dose, read-out: AUC), 123000 ng·h/mL; in series [1] (Sprague-Dawley, plasma, female, Formula I 180 mg/kg single oral dose, read-out: AUC) it was 541000 ng·h/mL; in series [1] (Sprague-Dawley, plasma, male, Formula I 20 mg/kg single oral dose, read-out: AUC) it was 19700 ng·h/mL; in series [1] (Sprague-Dawley, plasma, male, Formula I 60 mg/kg single oral dose, read-out: AUC), 102000 ng·h/mL; in series [1] (Sprague-Dawley, plasma, male, Formula I 180 mg/kg single oral dose, read-out: AUC), 376000 ng·h/mL. The AUC in series [1] (setting [5]) is 13300 ng·h/mL; in series [2] (setting [6]), 2890 ng·h/mL; in series [2] (setting [7]), 7220 ng·h/mL; in series [2] (setting [8]) it was 14600 ng·h/mL; in series [2] (setting [9]), 26900 ng·h/mL; in series [2] (setting [10]), 57600 ng·h/mL. Besides, the AUC is 49400 ng·h/mL in series [3] (Beagle, plasma, male, Formula I 10 mg/kg single oral dose, read-out: AUC); 114000 ng·h/mL in series [3] (Beagle, plasma, male, Formula I 25 mg/kg single oral dose, read-out: AUC); 290000 ng·h/mL in series [3] (Beagle, plasma, male, Formula I 50 mg/kg single oral dose, read-out: AUC); 10600 ng·h/mL in series [3] (setting [11]); 11400 ng·h/mL in series [4] (setting [12]). The “Ratio I/II of exposure (AUC Formula I : AUC Formula II)” value in series [1] (after Formula II 45 mg/kg oral) is reported as 0.40; in series [2] (setting [6]), 22.58; in series [2] (setting [7]) it was 21.81; in series [2] (setting [8]) it was 19.86; in series [2] (setting [9]), 15.92; in series [2] (setting [10]) it was 12.8. Besides, the figures for the “Ratio I/II of exposure (AUC Formula I : AUC Formula II)” value in series [3] (after Formula II 15 mg/kg oral) and in series [4] (after Formula II 30 mg/kg oral) were 0.24 and 1.56, respectively. Moreover, the “apparent terminal half life in human relative to the other animal species” value in series [2] (human vs other animal species, in vivo) is given as “at least 3 fold”.

Consider `O=C(Nc1nc2cccc(-c3ccc(CN4CCS(=O)(=O)CC4)cc3)n2n1)C1CC1` [Formula II, Cyclopropanecarboxylic acid {5-[4-(1,1-dioxo-thiomorpholin-4-ylmethyl)-phenyl]-[1,2,4]triazolo[1,5-a]pyridin-2-yl}-amide], for which the “In vitro metabolic profile of Formula II (as % of total radioactivity)” value with hepatocytes of human is reported as “at least 80%”; in the series on hepatocytes of human (listed as drawing 10) it was 88%; in the series with hepatocytes of rat it was “at least 80%”; in the series on hepatocytes of rat (listed as drawing 10), 86%. Moreover, the AUC in series [1] (setting [5]) was determined as 33300 ng·h/mL; in series [2] (setting [6]), 128 ng·h/mL; in series [2] (setting [7]) it was 331 ng·h/mL; in series [2] (setting [8]), 735 ng·h/mL; in series [2] (setting [9]) it was 1690 ng·h/mL; in series [2] (setting [10]), 4500 ng·h/mL. Also, the figures for the AUC in series [3] (setting [11]) and in series [4] (setting [12]) were 44900 ng·h/mL and 7300 ng·h/mL, respectively. In series [2], the half-life lay in the range of 5 to 8 h.
